How the values were obtained:
[1] = target: GDP-bound NRAS wild-type protein (Homo sapiens, UniProt P01111); test: Binding to NRAS by surface plasmon resonance (SPR), Single Cycle Kinetics; conditions: SPR; KD ratio class
[2] = target: GDP-bound HRAS wild-type protein (Homo sapiens, UniProt P01112); test: Binding to HRAS by surface plasmon resonance (SPR), Single Cycle Kinetics; conditions: SPR; KD ratio class
[3] = tested on: human lung cancer strain NCI-H441; test: cells; conditions: NCI-H441, 96 h, read-out: NCI-H441 IC50 (nM)

Sequence of GDP-bound HRAS wild-type protein (P01112 whole entry): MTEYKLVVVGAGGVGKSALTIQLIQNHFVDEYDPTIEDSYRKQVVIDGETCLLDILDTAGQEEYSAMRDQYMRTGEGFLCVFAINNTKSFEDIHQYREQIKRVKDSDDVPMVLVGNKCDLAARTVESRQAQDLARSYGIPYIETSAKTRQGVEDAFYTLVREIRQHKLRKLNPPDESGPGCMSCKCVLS
Sequence of GDP-bound NRAS wild-type protein (P01111 whole entry): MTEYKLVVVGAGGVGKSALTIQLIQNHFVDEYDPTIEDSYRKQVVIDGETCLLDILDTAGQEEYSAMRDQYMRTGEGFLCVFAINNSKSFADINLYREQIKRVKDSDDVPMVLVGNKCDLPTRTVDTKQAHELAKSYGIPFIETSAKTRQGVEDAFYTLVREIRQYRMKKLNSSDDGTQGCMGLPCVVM

Row | IC50 [3] [nM] | SMILES | NRAS/KRAS (ratio of KD value for GDP-bound NRAS wild-type protein to KD value for KRAS) [1] | HRAS/KRAS (ratio of KD value for GDP-bound HRAS wild-type protein to KD value for KRAS) [2]
1 | 30.5 | CCO[C@@H]1C[C@H]2C(=O)NC3(CCC3)C(=O)N(C)[C@@H](C3CCCC3)C(=O)N(C)[C@H](C(=O)N(C)C)CC(=O)N(C)[C@@H](CC3CC3)C(=O)N[C@@H]([C@@H](C)CC)C(=O)N(C)CC(=O)N(C)[C@H]3C/C=C\CCN(C3=O)[C@@H](Cc3ccc(C)cc3)C(=O)N(C)CC(=O)N[C@@H](CCc3ccc(Cl)c(Cl)c3)C(=O)N2C1 [PP1485] | A (a compound having 10 or more and less than 20 is denoted as A) | A (a compound having 10 or more and less than 20 is denoted as A)
2 | 5.8 | CCO[C@@H]1C[C@H]2C(=O)NC3(CCCC3)C(=O)N(C)[C@@H](C3CCCC3)C(=O)N(C)[C@H](C(=O)N3CCOCC3)CC(=O)N(C)[C@@H](CC)C(=O)N[C@@H]([C@@H](C)CC)C(=O)N(C)CC(=O)N(C)[C@H]3CC[C@@H](C)CN(C3=O)[C@@H](Cc3ccc(C(F)(F)F)cc3)C(=O)N(C)CC(=O)N[C@@H](CCc3ccc(C(F)(F)F)c(Cl)c3)C(=O)N2C1 [PP1377] | B (a compound having 3 or more and less than 10 is denoted as B) | B (a compound having 3 or more and less than 10 is denoted as B)
3 | 25.1 | CCO[C@@H]1C[C@H]2C(=O)NC3(CCC3)C(=O)N(C)[C@@H](C3CCCC3)C(=O)N(C)[C@H](C(=O)N3CCOCC3)CC(=O)N(C)[C@@H](CC3CCCC3)C(=O)N[C@@H]([C@@H](C)CC)C(=O)N(C)CC(=O)N(C)[C@H]3C/C=C\CCN(C3=O)[C@@H](Cc3ccc(C)cc3)C(=O)N(C)CC(=O)N[C@@H](CCc3cc(F)c(C(F)(F)F)c(F)c3)C(=O)N2C1 [PP1394] | AA (a compound having 20 or more is denoted as AA) | A (a compound having 10 or more and less than 20 is denoted as A)
4 | 6.7 | CCCOC[C@H]1C(=O)N[C@@H]([C@@H](C)CC)C(=O)N(C)CC(=O)N(C)[C@H]2C/C=C\CCN(C2=O)[C@@H](Cc2ccc(C)cc2)C(=O)N(C)CC(=O)N[C@@H](CCc2cc(F)c(C(F)(F)F)c(F)c2)C(=O)N2C[C@H](OCC)C[C@H]2C(=O)NC2(CC(C)(C)C2)C(=O)N(C)[C@@H](C2CCCC2)C(=O)N(C)[C@H](C(=O)N(C)CC)CC(=O)N1C [PP1577] | B (a compound having 3 or more and less than 10 is denoted as B) | B (a compound having 3 or more and less than 10 is denoted as B)
5 | 1.8 | CCC[C@H]1C(=O)N[C@@H]([C@@H](C)CC)C(=O)N(C)CC(=O)N(C)[C@H]2C/C=C\CCN(C2=O)[C@@H](Cc2ccc(C(F)(F)F)cc2)C(=O)N(C)CC(=O)N[C@@H](CCc2ccc(C(F)(F)F)c(OC)c2)C(=O)N2C[C@H](OCC)C[C@H]2C(=O)NC2(CC(C)(C)C2)C(=O)N(C)[C@@H](C2CCCC2)C(=O)N(C)[C@H](C(=O)N(C)C)CC(=O)N1C [PP1560] | A (a compound having 10 or more and less than 20 is denoted as A) | B (a compound having 3 or more and less than 10 is denoted as B)
6 | 112 | CCO[C@@H]1C[C@H]2C(=O)NC3(CCC3)C(=O)N(C)[C@@H](C(CC)CC)C(=O)N(C)[C@H](C(=O)N3CCCC3)CC(=O)N(C)[C@@H](C)C(=O)N[C@@H]([C@@H](C)CC)C(=O)N(C)CC(=O)N(C)[C@H]3C/C=C\CCN(C3=O)[C@@H](CC3CCCCC3)C(=O)N(C)CC(=O)N[C@@H](CCc3cc(F)c(C(F)(F)F)c(F)c3)C(=O)N2C1 [PP1434] | A (a compound having 10 or more and less than 20 is denoted as A) | A (a compound having 10 or more and less than 20 is denoted as A)
7 | 69.7 | CCO[C@@H]1C[C@H]2C(=O)NC3(CCC3)C(=O)N(C)[C@@H](C(CC)CC)C(=O)N(C)[C@H](C(=O)N3CCCC3)CC(=O)N(C)[C@@H](COC)C(=O)N[C@@H]([C@@H](C)CC)C(=O)N(C)CC(=O)N(C)[C@H]3C/C=C\CCN(C3=O)[C@@H](CC3CCC(F)(F)CC3)C(=O)N(C)CC(=O)N[C@@H](CCc3cc(F)c(C(F)(F)F)c(F)c3)C(=O)N2C1 [PP1440] | AA (a compound having 20 or more is denoted as AA) | A (a compound having 10 or more and less than 20 is denoted as A)
8 | 58.8 | CCO[C@@H]1C[C@H]2C(=O)NC3(CCC3)C(=O)N(C)[C@@H](C(CC)CC)C(=O)N(C)[C@H](C(=O)N3CCOCC3)CC(=O)N(C)[C@@H](CC)C(=O)N[C@@H]([C@@H](C)CC)C(=O)N(C)CC(=O)N(C)[C@H]3C/C=C\CCN(C3=O)[C@@H](Cc3ccc(C(F)(F)F)cc3)C(=O)N(C)CC(=O)N[C@@H](CCc3cc(F)c(C(F)(F)F)c(F)c3)C(=O)N2C1 [PP1286] | AA (a compound having 20 or more is denoted as AA) | A (a compound having 10 or more and less than 20 is denoted as A)
9 | 59.7 | CCO[C@@H]1C[C@H]2C(=O)NC3(CCC3)C(=O)N(C)[C@@H](C(CC)CC)C(=O)N(C)[C@H](C(=O)N(C)C)CC(=O)N(C)[C@@H](CC(C)C)C(=O)N[C@@H]([C@@H](C)CC)C(=O)N(C)CC(=O)N(C)[C@H]3C/C=C\CCN(C3=O)[C@@H](Cc3ccc(C(F)(F)F)cc3)C(=O)N(C)CC(=O)N[C@@H](CCc3cc(F)c(Cl)c(F)c3)C(=O)N2C1 [PP1232] | A (a compound having 10 or more and less than 20 is denoted as A) | A (a compound having 10 or more and less than 20 is denoted as A)
10 | 2.9 | CC[C@H](C)[C@@H]1NC(=O)[C@H](CC2CC2)N(C)C(=O)C[C@@H](C(=O)N(C)C)N(C)C(=O)[C@H](C2CCCC2)N(C)C(=O)C2(CCCC2)NC(=O)[C@@H]2CCCN2C(=O)[C@H](CCc2cc(F)c(C(F)(F)F)c(F)c2)NC(=O)CN(C)C(=O)[C@H](Cc2ccc(C(F)(F)F)cc2)N2C[C@H](C)[C@H](C)C[C@@H](C2=O)N(C)C(=O)CN(C)C1=O [PP1368] | A (a compound having 10 or more and less than 20 is denoted as A) | B (a compound having 3 or more and less than 10 is denoted as B)
11 | 12.6 | CCCOC[C@H]1C(=O)N[C@@H]([C@@H](C)CC)C(=O)N(C)CC(=O)N(C)[C@H]2C/C=C\CCN(C2=O)[C@@H](Cc2ccc(C)cc2)C(=O)N(C)CC(=O)N[C@@H](CCc2cc(F)c(C(F)(F)F)c(F)c2)C(=O)N2C[C@H](OCC)C[C@H]2C(=O)NC2(CC(C)(C)C2)C(=O)N(C)[C@@H](C2CCCC2)C(=O)N(C)[C@H](C(=O)N(CC)CC)CC(=O)N1C [PP1578] | A (a compound having 10 or more and less than 20 is denoted as A) | A (a compound having 10 or more and less than 20 is denoted as A)
12 | 13.4 | CCO[C@@H]1C[C@H]2C(=O)NC3(CCC3)C(=O)N(C)[C@@H](C3CCCC3)C(=O)N(C)[C@H](C(=O)N3CCOCC3)CC(=O)N(C)[C@@H](CC)C(=O)N[C@@H]([C@@H](C)CC)C(=O)N3CC[C@H]3C(=O)N(C)[C@H]3CC[C@@H](C)CN(C3=O)[C@@H](Cc3ccc(C(F)(F)F)cc3)C(=O)N(C)CC(=O)N[C@@H](CCc3cc(F)c(C(F)(F)F)c(F)c3)C(=O)N2C1 [PP1369] | B (a compound having 3 or more and less than 10 is denoted as B) | B (a compound having 3 or more and less than 10 is denoted as B)
13 | 4.2 | CC[C@H](C)[C@@H]1NC(=O)[C@H](CC2CCC2)N(C)C(=O)C[C@@H](C(=O)N(C)C)N(C)C(=O)[C@H](C2CCCC2)N(C)C(=O)C2(CCCC2)NC(=O)[C@@H]2CCCN2C(=O)[C@H](CCc2cc(F)c(C(F)(F)F)c(F)c2)NC(=O)CN(C)C(=O)[C@H](Cc2ccc(C(F)(F)F)cc2)N2C[C@H](C)CC[C@@H](C2=O)N(C)C(=O)CN(C)C1=O [PP1386] | B (a compound having 3 or more and less than 10 is denoted as B) | B (a compound having 3 or more and less than 10 is denoted as B)
14 | 5 | CCO[C@@H]1C[C@H]2C(=O)NC3(CCC3)C(=O)N(C)[C@@H](C3CCCC3)C(=O)N(C)[C@H](C(=O)N3CCOCC3)CC(=O)N(C)[C@@H](CC)C(=O)N[C@@H]([C@@H](C)CC)C(=O)N(C)CC(=O)N(C)[C@H]3CC[C@@H](C)CN(C3=O)[C@@H](Cc3ccc(C(F)(F)F)cc3)C(=O)N(C)CC(=O)N[C@@H](CCc3cc(F)c(C(F)(F)F)c(F)c3)C(=O)N2C1 [PP1372] | B (a compound having 3 or more and less than 10 is denoted as B) | B (a compound having 3 or more and less than 10 is denoted as B)

Row | SMILES | IC50 [3] [nM] | NRAS/KRAS (ratio of KD value for GDP-bound NRAS wild-type protein to KD value for KRAS) [1] | HRAS/KRAS (ratio of KD value for GDP-bound HRAS wild-type protein to KD value for KRAS) [2]
15 | CCO[C@@H]1C[C@H]2C(=O)NC3(CCC3)C(=O)N(C)[C@@H](C3CCCC3)C(=O)N(C)[C@H](C(=O)N3CCCCC3)CC(=O)N(C)[C@@H](CC3CC3)C(=O)N[C@@H]([C@@H](C)CC)C(=O)N(C)CC(=O)N(C)[C@H]3C/C=C\CCN(C3=O)[C@@H](Cc3ccc(C(F)(F)F)cc3)C(=O)N(C)CC(=O)N[C@@H](CCc3cc(F)c(C(F)(F)F)c(F)c3)C(=O)N2C1 [PP1291] | 16.7 | A (a compound having 10 or more and less than 20 is denoted as A) | A (a compound having 10 or more and less than 20 is denoted as A)
